Data taken from patent US20040204577A1, “Novel peptide-forming enzyme gene” (Ajinomoto Co., Inc., priority 2003, published 2004).
Where a SMILES comes first, the peptide text is derived from it.

Key:
[1] = test system: microbial cells of Empedobacter brevis strain FERM BP-8113; assay: Production of peptide using microbial cells; assay type: cell-based; settings: 1 mL cell suspension (100 g/L) + 1 mL buffer with 200 mM carboxy component (hydrochloride) and 400 mM amino acid; borate buffer pH 9.0, 10 mM EDTA; 18° C., 2 hours
Description: A 50 mL medium (pH 6.2) containing 5 grams (g) of glucose, 5 g of ammonium sulfate, 1 g of monopotassium phosphate, 3 g of dipotassium phosphate, 0.5 g of magnesium sulfate, 10 g of yeast extract and 10 g of peptone in 1 liter (L) was transferred to a 500 mL Sakaguchi flask and sterilized at 115° C. for 15 minutes. This medium was then inoculated with one loopful cells of Empedobacter brevis strain FERM BP-8113 (Depositary institution: the independent administrative corporation, National Institute of Advanced Industrial Science and Technology, International Patent Organism Depositary, Address of depositary institution: Chuo Dai-6, 1-1 Higashi 1-Chome, Tsukuba-shi, Ibaraki-ken, Japan, International deposit transfer date: Jul. 8, 2002) that had been cultured at 30° C. for 16 hours in the same medium, followed by shake culturing at 30° C. for 16 hours and 120 strokes/min.

[2] = test system: peptide-forming enzyme (Mono S fraction enzyme); assay: Production of L-alanyl-L-glutamine from L-alanine methyl ester and L-glutamine with enzyme fraction; assay type: biochemical, Empedobacter brevis; settings: for L-Ala-L-Gln: L-alanine methyl ester hydrochloride 100 mM, 18° C., 2 hours
Description: On the other hand, there was hardly any production of L-Ala-L-Gln observed in an enzyme-non-added lot, and the […] was only about 0.07 mM after reacting for 120 minutes.

Peptide formed, enzyme-added lot ([2]; 100 mM L-alanine methyl ester hydrochloride, 200 mM L-glutamine, 10 mM EDTA, pH 9.0, 18° C., FIG. 3): 83 mM
L-Ala-L-Gln ([2]; L-glutamine 100 mM): 68.2 mM
L-Ala-L-Gln ([2]; L-glutamine 110 mM): 72.1 mM
L-Ala-L-Gln ([2]; L-glutamine 120 mM): 73.3 mM
L-Ala-L-Gln ([2]; L-glutamine 130 mM): 75.1 mM
L-Ala-L-Gln ([2]; L-glutamine 150 mM): 75.5 mM
L-Ala-L-Gln ([2]; L-glutamine 200 mM): 82.0 mM
Compound: C[C@H](N)C(=O)N[C@@H](CCC(N)=O)C(=O)O [L-Ala-L-Gln, L-alanyl-L-glutamine] (H-Ala-Gln-OH)
Formed peptide [1]: 68.0 mM
